The text below walks through data of ChEMBL document CHEMBL5331124, “Degradation of Hexokinase 2 Blocks Glycolysis and Induces GSDME-Dependent Pyroptosis to Amplify Immunogenic Cell Death for Breast Cancer Therapy” (J Med Chem, 2023).

The structures appear in SMILES notation. The source made the active and inactive calls. No cut-off for these calls is given here.

The subject of data set [1] is 4T1. The data set can be described thus: Potency index, ratio of IC50 for lonidamine to test compound IC50 for mouse 4T1 cells assessed as cell growth inhibition measured for 72 hrs by MTT assay. It counts as functional.
The nature of data set [2]: Toxicity in BALB/c mouse implanted with mouse 4T1 cells assessed as pathological changes in kidney at 50 mg/kg, ip measured after 25 days in presence of cisplatin by Hematoxylin -eosin staining based analysis. Format: organism-based. Particulars: in vivo, 600 h, time 25 day.
Data set [3] can be described thus: Toxicity in BALB/c mouse implanted with mouse 4T1 cells assessed as effect on platelet count at 50 mg/kg, ip measured after 25 days in presence of cisplatin by routine blood test. It counts as organism-based. Particulars: in vivo, 600 h, time 25 day.
Data set [4] can be described thus: Toxicity in BALB/c mouse implanted with mouse 4T1 cells assessed as pathological changes in kidney at 50 mg/kg, ip measured after 25 days by Hematoxylin -eosin staining based analysis. Format: organism-based. The settings on record: in vivo, 600 h, time 25 day.
Data set [5] has as its target Protein cereblon/Hexokinase-2 (Homo sapiens) (UniProt P52789+Q96SW2). The data set can be described thus: PROTAC activity at CRBN/HK2 in human MDA-MB-231 cells assessed as […] ternary complex formation at 10 uM incubated for 24 hrs. Format: cell-based.
Data set [6] in a line: Toxicity in BALB/c mouse implanted with mouse 4T1 cells assessed as effect on mean corpuscular hemoglobin concentration at 50 mg/kg, ip measured after 25 days in presence of cisplatin by routine blood test. The settings on record: in vivo, 600 h, time 25 day. It counts as organism-based.
Data set [7] can be described thus: Toxicity in BALB/c nude mouse xenografted with human MDA-MB-231 cells assessed as body weight loss at 50 mg/kg, ip measured after 30 days. The settings on record: in vivo, 720 h, time 30 day. It counts as organism-based. (In general: Xenograft models place foreign cells or tissue in a host animal.)
Data set [8] is described as follows: Toxicity in BALB/c mouse implanted with mouse 4T1 cells assessed as effect on platelet count at 50 mg/kg, ip measured after 25 days by routine blood test. It counts as organism-based. The settings on record: in vivo, 600 h, time 25 day.
In data set [9] the target is T1, Hexokinase-2 (Homo sapiens) (UniProt P52789).
T1 sequence (whole entry): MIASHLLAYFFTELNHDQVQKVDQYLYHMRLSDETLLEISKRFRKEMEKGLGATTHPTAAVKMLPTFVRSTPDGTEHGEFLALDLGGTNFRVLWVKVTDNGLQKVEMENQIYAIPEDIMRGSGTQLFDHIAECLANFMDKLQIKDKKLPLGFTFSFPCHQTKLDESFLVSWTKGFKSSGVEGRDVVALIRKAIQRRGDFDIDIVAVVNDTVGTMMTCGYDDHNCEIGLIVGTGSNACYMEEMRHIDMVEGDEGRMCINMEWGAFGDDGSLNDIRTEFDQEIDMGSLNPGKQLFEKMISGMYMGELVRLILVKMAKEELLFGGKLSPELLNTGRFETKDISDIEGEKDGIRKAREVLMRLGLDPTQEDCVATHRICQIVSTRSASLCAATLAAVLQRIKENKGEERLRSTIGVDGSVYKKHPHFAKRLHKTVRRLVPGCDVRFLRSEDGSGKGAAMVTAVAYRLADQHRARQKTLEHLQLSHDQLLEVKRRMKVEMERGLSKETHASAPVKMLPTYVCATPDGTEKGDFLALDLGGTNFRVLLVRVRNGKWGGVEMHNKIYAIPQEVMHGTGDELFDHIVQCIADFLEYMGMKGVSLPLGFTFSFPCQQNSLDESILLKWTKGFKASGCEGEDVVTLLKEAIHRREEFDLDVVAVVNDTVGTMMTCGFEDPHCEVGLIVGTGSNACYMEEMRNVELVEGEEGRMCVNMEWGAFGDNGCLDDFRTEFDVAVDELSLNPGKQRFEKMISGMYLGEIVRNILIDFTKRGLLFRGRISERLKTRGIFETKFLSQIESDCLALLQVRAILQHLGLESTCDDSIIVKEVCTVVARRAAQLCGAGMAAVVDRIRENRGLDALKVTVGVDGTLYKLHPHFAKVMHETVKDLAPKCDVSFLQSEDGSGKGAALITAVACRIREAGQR
The data set can be described thus: Induction of HK2 degradation in human MDA-MB-231 cells upto 200 uM measured at 12 to 36 hrs. Format: cell-based. Particulars: time 12-36 hrs.

Data set [10] deals with 4T1. The data set can be described thus: Induction of pyroptosis in mouse 4T1 cells assessed as viable cells at 20 uM incubated for 36 hrs by annexin V-FITC staining based flow cytometry analysis (reference value: 64 %). Format: functional. The settings on record: read-out: Activity. For orientation: A flow cytometer gives signals particle by particle.
Data set [11] concerns 4T1. Put plainly: Antitumor immunity against mouse 4T1 cells implanted in BALB/c mouse model assessed as upregulation of IFN-gamma expression in mouse tumor by ELISA analysis. It counts as functional, cell-based. (In general: In an ELISA, binding on a coated surface is turned into a signal by an enzyme label.)
For data set [12], the system named is 4T1. The data set can be described thus: Induction of pyroptosis in mouse 4T1 cells assessed as […] in cleaved caspase-3 level at 20 uM incubated for 36 hrs. It counts as functional, cell-based.
The nature of data set [13]: Toxicity in BALB/c nude mouse xenografted with human MDA-MB-231 cells assessed as effect on mean corpuscular hemoglobin at 50 mg/kg, ip measured after 30 days by routine blood test. It counts as organism-based. The settings on record: in vivo, 720 h, time 30 day.
The nature of data set [14]: Toxicity in BALB/c nude mouse xenografted with human MDA-MB-231 cells assessed as effect on hemoglobin level at 50 mg/kg, ip measured after 30 days by routine blood test. It counts as organism-based. Particulars: in vivo, 720 h, time 30 day.
Data set [15] has as its system 4T1. Put plainly: Induction of mitochondrial damage in mouse 4T1 cells at 20 uM measured for 36 hrs by Hoechst 33342 staining based confocal fluorescence microscopic analysis. It counts as functional, cell-based.
In data set [16] the test system is 4T1. The data set can be described thus: Induction of pyroptosis in mouse 4T1 cells assessed as dead cells at 20 uM incubated for 36 hrs by annexin V-FITC staining based flow cytometry analysis (Rvb =17.6 %). It counts as functional.
The subject of data set [17] is MDA-MB-231. The data set can be described thus: Antitumor activity against human MDA-MB-231 cells xenografted in BALB/c nude mouse assessed as increase in cleaved caspase-3 level at 50 mg/kg, ip measured after 28 days. Format: functional, organism-based. The settings on record: time 28.0 day.
Data set [18] concerns MDA-MB-231. The data set can be described thus: Induction of pyroptosis in human MDA-MB-231 cells assessed as increase in cleaved caspase-3 level level at 20 uM incubated for 36 hrs by Western blot analysis. Format: functional, cell-based.
The subject of data set [19] is 4T1. Put plainly: Cytotoxicity against mouse 4T1 cells assessed as inhibition of cell growth at 1 to 100 uM incubated for 48 hrs by CCK-8 assay. Particulars: dose 1-100 µM. Format: functional, cell-based.
Data set [20] relates to 4T1. The data set can be described thus: Antiproliferative activity against mouse 4T1 cells assessed as cell growth inhibition measured for 72 hrs by MTT assay. It counts as functional, cell-based. The settings on record: 4T1, 72 h.
Data set [21] relates to 4T1. Put plainly: Antitumor immunity against mouse 4T1 cells implanted in BALB/c mouse model assessed as downregulation of TGF-beta expression in mouse tumor by ELISA analysis. Format: functional, cell-based.
Data set [22] can be described thus: Toxicity in BALB/c mouse implanted with mouse 4T1 cells assessed as effect on red blood cells at 50 mg/kg, ip measured after 25 days by routine blood test. Format: organism-based. Particulars: in vivo, 600 h, time 25 day.

Chain of Protein cereblon/Hexokinase-2 (Homo sapiens) (Q96SW2 whole entry, looked up, one chain of several): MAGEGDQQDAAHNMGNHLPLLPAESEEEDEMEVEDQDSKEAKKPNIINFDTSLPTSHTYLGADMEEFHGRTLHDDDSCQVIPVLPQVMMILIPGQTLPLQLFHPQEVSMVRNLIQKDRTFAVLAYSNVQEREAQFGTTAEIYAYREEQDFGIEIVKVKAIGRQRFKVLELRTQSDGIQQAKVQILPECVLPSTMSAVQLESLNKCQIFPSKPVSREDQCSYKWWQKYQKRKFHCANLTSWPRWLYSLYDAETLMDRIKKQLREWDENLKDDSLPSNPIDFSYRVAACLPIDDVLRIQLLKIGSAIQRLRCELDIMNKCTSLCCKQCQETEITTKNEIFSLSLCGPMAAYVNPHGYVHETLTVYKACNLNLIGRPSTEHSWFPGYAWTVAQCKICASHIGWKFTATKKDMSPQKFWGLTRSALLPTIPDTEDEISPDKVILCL

In the case of `O=C1CCC(N2C(=O)c3cccc(NCCCCNC(=O)c4nn(Cc5ccc(Cl)cc5Cl)c5ccccc45)c3C2=O)C(=O)N1` (configuration not stated), in data set [1], the “Ratio IC50” value was 30.1. The Activity result in [2], in data set [3], in data set [4], in [6], in data set [7] and in data set [8] was “Non-Toxic” in each case. The Activity entry in [13] was “Non-Toxic”; in data set [14], “Non-Toxic”; in [16], 9.44%; in data set [22], “Non-Toxic”. Further, the result in data set [5], in data set [9], in data set [11], in data set [12], in data set [15] and in [17] was Active. Besides, the outcome in [18], in data set [19] and in data set [21] was Active. Besides, in [10], the viability at 20 µM stood at 37.7%. Moreover, in [20], the IC50 was found to be 5.08 µM.

Broadly, the IC50 is the point on the concentration scale where inhibition reaches its midpoint.
